Laboratory results from patent US9981954B2, “2-(pyrazin-2-ylcarbonylaminomethyl) benzimidazolium compounds as epithelial sodium channel inhibitors” (Boehringer Ingelheim International GmbH, priority 2015, dated 2018).

Legend:
[1] = target: T1, ENaC (Epithelial Sodium Channel), Mouse kidney M-1 cells (Mus musculus, UniProt Q61180+Q9WU38+Q9WU39); experiment: Ussing Chamber assay: inhibition of amiloride sensitive short circuit current in M-1 cells; format: cell-based; settings: apical application, 37° C.
T1 construct: Mouse kidney M-1 cells were cultivated in DMEM containing 5% FCS and 5 μM dexamethasone; endogenous in cells; host or cells: Mouse kidney M-1 cells (polarised on transwell filters, dexamethasone-treated)
T1 sequence (Q61180 1-699): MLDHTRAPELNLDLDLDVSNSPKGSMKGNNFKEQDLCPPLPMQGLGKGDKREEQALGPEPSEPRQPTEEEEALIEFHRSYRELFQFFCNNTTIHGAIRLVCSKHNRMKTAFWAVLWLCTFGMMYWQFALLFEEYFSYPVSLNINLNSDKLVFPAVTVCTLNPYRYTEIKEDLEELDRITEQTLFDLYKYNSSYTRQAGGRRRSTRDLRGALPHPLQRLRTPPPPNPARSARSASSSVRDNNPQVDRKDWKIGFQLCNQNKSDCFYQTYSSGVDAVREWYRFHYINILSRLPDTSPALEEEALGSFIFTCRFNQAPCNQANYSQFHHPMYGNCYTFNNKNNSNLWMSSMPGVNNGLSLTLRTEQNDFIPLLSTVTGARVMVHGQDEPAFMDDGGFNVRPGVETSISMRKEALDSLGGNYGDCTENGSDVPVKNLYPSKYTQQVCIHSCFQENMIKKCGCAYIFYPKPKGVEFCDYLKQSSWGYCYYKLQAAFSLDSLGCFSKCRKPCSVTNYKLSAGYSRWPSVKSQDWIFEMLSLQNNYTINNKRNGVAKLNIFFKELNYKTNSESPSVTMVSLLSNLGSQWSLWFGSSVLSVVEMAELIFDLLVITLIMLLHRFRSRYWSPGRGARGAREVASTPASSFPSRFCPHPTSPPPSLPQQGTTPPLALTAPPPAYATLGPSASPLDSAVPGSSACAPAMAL
T1 sequence (Q9WU38 1-638): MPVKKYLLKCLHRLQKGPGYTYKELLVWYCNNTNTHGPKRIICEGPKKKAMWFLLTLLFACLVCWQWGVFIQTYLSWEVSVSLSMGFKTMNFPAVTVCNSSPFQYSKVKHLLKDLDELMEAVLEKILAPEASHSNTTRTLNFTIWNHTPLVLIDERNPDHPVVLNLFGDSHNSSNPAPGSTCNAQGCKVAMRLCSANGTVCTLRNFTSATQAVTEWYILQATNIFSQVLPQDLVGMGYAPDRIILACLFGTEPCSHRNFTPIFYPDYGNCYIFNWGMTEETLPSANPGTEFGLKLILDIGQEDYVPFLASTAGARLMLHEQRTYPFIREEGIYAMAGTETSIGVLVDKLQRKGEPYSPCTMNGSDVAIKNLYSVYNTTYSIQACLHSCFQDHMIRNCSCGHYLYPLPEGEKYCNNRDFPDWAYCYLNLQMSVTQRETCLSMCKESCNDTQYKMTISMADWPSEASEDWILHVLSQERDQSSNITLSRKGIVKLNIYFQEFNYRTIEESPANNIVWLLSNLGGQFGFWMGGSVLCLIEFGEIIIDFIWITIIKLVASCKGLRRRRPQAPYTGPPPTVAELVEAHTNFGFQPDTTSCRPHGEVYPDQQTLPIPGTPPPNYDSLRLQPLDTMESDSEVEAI
T1 sequence (Q9WU39 1-655): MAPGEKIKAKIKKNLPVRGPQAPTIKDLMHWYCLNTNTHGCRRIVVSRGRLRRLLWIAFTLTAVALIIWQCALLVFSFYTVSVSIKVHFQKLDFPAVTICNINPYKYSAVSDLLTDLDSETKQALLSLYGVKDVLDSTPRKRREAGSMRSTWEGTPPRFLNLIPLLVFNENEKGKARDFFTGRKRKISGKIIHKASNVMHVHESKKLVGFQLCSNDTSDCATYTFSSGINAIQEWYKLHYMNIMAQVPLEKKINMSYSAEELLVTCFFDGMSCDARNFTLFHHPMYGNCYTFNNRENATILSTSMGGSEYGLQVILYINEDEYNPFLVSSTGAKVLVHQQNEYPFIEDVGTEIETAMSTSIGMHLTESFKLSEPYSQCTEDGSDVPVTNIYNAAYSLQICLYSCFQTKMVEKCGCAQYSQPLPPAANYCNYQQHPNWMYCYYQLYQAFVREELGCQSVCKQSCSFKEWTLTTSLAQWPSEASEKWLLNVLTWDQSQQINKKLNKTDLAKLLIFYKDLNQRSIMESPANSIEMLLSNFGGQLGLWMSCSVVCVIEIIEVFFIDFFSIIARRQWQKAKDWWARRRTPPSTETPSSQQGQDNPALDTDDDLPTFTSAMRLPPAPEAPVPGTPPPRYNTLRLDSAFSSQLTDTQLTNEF
Description: Ussing Chamber: Mouse kidney M-1 cells were cultivated in DMEM containing 5% FCS and 5 μM dexamethasone for 10 to 12 days on polyester transwell filters. Filters were inserted into a teflon-coated well-plate which fit into the ussing chamber system. Prior to measurement the medium of M-1 cells was replaced with Caco-2 transport buffer (Invitrogen, Germany). During measurements, the Ussing chamber temperature was kept at 37° C. Short circuit currents (I_sc) were measured in the voltage-clamp mode with the software package Lab View for data acquisition and analysis. The transepithelial electrical resistance (TEER) was determined by the application of voltage steps of ±5 mV every 5 sec. Compounds were administered at a final concentration of 3 μM or at increasing concentrations (1-3-10 μM) to the apical solution. At the end of each experiment the amiloride sensitive I_SC was measured by adding 3 μM amiloride to the apical compartment. Results are expressed as inhibition in percent of the amiloride effect or as IC50.

[2] = Permeability in CALU-3 cells; format: in vitro ADME; settings: human, CALU-3 monolayers, pH 7.4, 37° C., 10 μM compound
Description: Permeability in CALU-3 Cells:
Permeability measurements across polarized, confluent CALU-3 cell monolayers grown on permeable filter supports are used to provide information on the potential of a compound to pass the lung epithelium.
CALU-3 cells (1-2×10^5 cells/l cm^2 area) are seeded on filter inserts (Costar transwell polycarbonate filters, 0.4 μm pore size) and cultured (for 10-12 days DMEM) until tight monolayers are formed. Compounds of interest are dissolved in appropriate solvent (DMSO, 10 mM stock solution). […] The transport solution (TL) is applied to the apical or basolateral donor side for measuring A-B or B-A permeability (3 filter replicates), respectively. The receiver side contains the same buffer as the donor side. After 30 min of accommodation, samples are collected at the start t0=0 min and at the end of the experiment tn=90 min from the donor and at 0, 30, 60, and 90 min also from the receiver chamber. Volume removed is […] by HTP-4 buffer. The compound concentration in the samples is measured by HPLC-MS/MS or scintillation counting. The permeability coefficient (Papp) and efflux ratio are calculated according to: Papp [cm/s]=(concentration receiver [nM]*volume receiver [mL]/time interval [sec])*(1/filter area)*(1/donor concentration [nM]).

- IC50 [1]: 13 nM
- Papp A→B at 90 min, 10 μM ([2]; apical-to-basal): 0.3 ×10⁻⁶ cm/s
- Papp B→A at 90 min, 10 μM ([2]; basal-to-apical): 0.2 ×10⁻⁶ cm/s
SMILES: CCn1c(CNC(=O)c2nc(Cl)c(N)nc2N)[n+](CC(=O)c2ccc(OC)c(OC)c2)c2ccc(OC)cc21.O=C([O-])C(F)(F)F [Example 8.01]
